In brackets after ≈: the same amount, converted by molar mass.
Legend:
Assay type in all cases: cell-based
S. aureus MP-12 = test: microbe, parasite or virus in culture; conditions: Staphylococcus aureus, MP12, read-out: MIC S. aureus MP-12
K. pneumoniae MP-648 = test: MIC determination by CLSI broth dilution, K. pneumoniae MP-648; conditions: Klebsiella pneumoniae, MP648, CLSI broth dilution; strain MP-648
E. coli MP-4 = test: MIC determination by CLSI broth dilution, E. coli MP-4; conditions: Escherichia coli, MP4, CLSI broth dilution; strain MP-4
A. baumannii MP-15 = test: MIC determination by CLSI broth dilution, A. baumannii MP-15; conditions: Acinetobacter baumannii, MP15, strain MP-15, read-out: MIC A. baumanii MP-15
P. aeruginosa MP-3 = test: MIC determination by CLSI broth dilution, P. aeruginosa MP-3; conditions: Pseudomonas aeruginosa, MP3, strain MP-3
K. pneumoniae MP-546 = test: MIC determination by CLSI broth dilution, K. pneumoniae MP-546; conditions: Klebsiella pneumoniae, MP546, CLSI broth dilution; strain MP-546

Compound | MIC (S. aureus MP-12) | MIC (K. pneumoniae MP-648) | MIC (E. coli MP-4) | MIC (A. baumannii MP-15) | MIC (P. aeruginosa MP-3) | MIC (K. pneumoniae MP-546)
CCCN1CC=C(C[C@@H]2COC(=O)C(C)(C)C(=O)[C@H](C)[C@@H](O[C@@H]3O[C@H](C)C[C@H](N(C)C)[C@H]3O)[C@](C)(OC)C[C@@H](C)CN2C)CC1 [Compound 59] | < 4 µg/mL | 4 to 32 µg/mL (≈ 6.27 to 50.2 µM) | < 4 µg/mL | > 32 µg/mL | > 32 µg/mL | < 4 µg/mL
CO[C@]1(C)C[C@@H](C)CN(C)[C@H](CC2CCN(C3CCCC3)CC2)COC(=O)C(C)(C)C(=O)[C@H](C)[C@H]1O[C@@H]1O[C@H](C)C[C@H](N(C)C)[C@H]1O [Compound 60] | 4 to 32 µg/mL (≈ 6.01 to 48.1 µM) | < 4 µg/mL | < 4 µg/mL | > 32 µg/mL | > 32 µg/mL | < 4 µg/mL
CO[C@]1(C)C[C@@H](C)CN(C)[C@H](CC2CCN(Cc3ccncc3)CC2)COC(=O)C(C)(C)C(=O)[C@H](C)[C@H]1O[C@@H]1O[C@H](C)C[C@H](N(C)C)[C@H]1O [Compound 61] | 4 to 32 µg/mL (≈ 5.81 to 46.4 µM) | 4 to 32 µg/mL (≈ 5.81 to 46.4 µM) | < 4 µg/mL | > 32 µg/mL | > 32 µg/mL | 4 to 32 µg/mL (≈ 5.81 to 46.4 µM)
CO[C@]1(C)C[C@@H](C)CN(C)[C@H](CC2CCN(Cc3ccco3)CC2)COC(=O)C(C)(C)C(=O)[C@H](C)[C@H]1O[C@@H]1O[C@H](C)C[C@H](N(C)C)[C@H]1O [Compound 62] | 4 to 32 µg/mL (≈ 5.9 to 47.2 µM) | < 4 µg/mL | < 4 µg/mL | 4 to 32 µg/mL (≈ 5.9 to 47.2 µM) | > 32 µg/mL | < 4 µg/mL
CO[C@]1(C)C[C@@H](C)CN(C)[C@H](CC2CCN(C3CC3)CC2)COC(=O)C(C)(C)C(=O)[C@H](C)[C@H]1O[C@@H]1O[C@H](C)C[C@H](N(C)C)[C@H]1O [Compound 63] | 4 to 32 µg/mL (≈ 6.27 to 50.2 µM) | 4 to 32 µg/mL (≈ 6.27 to 50.2 µM) | < 4 µg/mL | > 32 µg/mL | > 32 µg/mL | < 4 µg/mL
CO[C@]1(C)C[C@@H](C)CN(C)[C@H](CC2CCN(C=O)CC2)COC(=O)C(C)(C)C(=O)[C@H](C)[C@H]1O[C@@H]1O[C@H](C)C[C@H](N(C)C)[C@H]1O [Compound 64] | > 32 µg/mL | > 32 µg/mL | > 32 µg/mL | > 32 µg/mL | > 32 µg/mL | > 32 µg/mL
COC(CN1CCC(C[C@@H]2COC(=O)C(C)(C)C(=O)[C@H](C)[C@@H](O[C@@H]3O[C@H](C)C[C@H](N(C)C)[C@H]3O)[C@](C)(OC)C[C@@H](C)CN2C)CC1)OC [Compound 65] | 4 to 32 µg/mL (≈ 5.83 to 46.7 µM) | 4 to 32 µg/mL (≈ 5.83 to 46.7 µM) | < 4 µg/mL | > 32 µg/mL | > 32 µg/mL | < 4 µg/mL
CO[C@]1(C)C[C@@H](C)CN(C)[C@@H](CC2CCN(CC3CC=CCC3)CC2)COC(=O)C(C)(C)C(=O)[C@H](C)[C@H]1O[C@@H]1O[C@H](C)C[C@H](N(C)C)[C@H]1O (stereo partly drawn) [Compound 73] | 4 to 32 µg/mL (≈ 5.78 to 46.2 µM) | 4 to 32 µg/mL (≈ 5.78 to 46.2 µM) | < 4 µg/mL | > 32 µg/mL | > 32 µg/mL | < 4 µg/mL
CO[C@]1(C)C[C@@H](C)CN(C)[C@H](CC2CN(CC(C)C)C2)COC(=O)C(C)(C)C(=O)[C@H](C)[C@H]1O[C@@H]1O[C@H](C)C[C@H](N(C)C)[C@H]1O [Compound 74] | > 32 µg/mL | > 32 µg/mL | > 32 µg/mL | > 32 µg/mL | > 32 µg/mL | > 32 µg/mL
CCCN1CCC(CC[C@@H]2COC(=O)C(C)(C)C(=O)[C@H](C)[C@@H](O[C@@H]3O[C@H](C)C[C@H](N(C)C)[C@H]3O)[C@](C)(OC)C[C@@H](C)CN2C)CC1 [Compound 75] | > 32 µg/mL | > 32 µg/mL | 4 to 32 µg/mL (≈ 6.12 to 48.9 µM) | > 32 µg/mL | > 32 µg/mL | > 32 µg/mL
CO[C@]1(C)C[C@@H](C)CN(C)[C@H](CCC2CCN(CC(C)C)CC2)COC(=O)C(C)(C)C(=O)[C@H](C)[C@H]1O[C@@H]1O[C@H](C)C[C@H](N(C)C)[C@H]1O [Compound 76] | > 32 µg/mL | 4 to 32 µg/mL (≈ 5.99 to 47.9 µM) | < 4 µg/mL | > 32 µg/mL | > 32 µg/mL | 4 to 32 µg/mL (≈ 5.99 to 47.9 µM)
CO[C@H](CCN1CCCC1)[C@@H]1COC(=O)C(C)(C)C(=O)[C@H](C)[C@@H](O[C@@H]2O[C@H](C)C[C@H](N(C)C)[C@H]2O)[C@](C)(OC)C[C@@H](C)CN1C [Compound 77] | 4 to 32 µg/mL (≈ 6.23 to 49.9 µM) | < 4 µg/mL | < 4 µg/mL | > 32 µg/mL | > 32 µg/mL | < 4 µg/mL
CO[C@]1(C)C[C@@H](C)CN(C)[C@H]([C@H](O)CCN2CCCC2)COC(=O)C(C)(C)C(=O)[C@H](C)[C@H]1O[C@@H]1O[C@H](C)C[C@H](N(C)C)[C@H]1O [Compound 78, (3S,6R,8R,9R,10R)-9-(((2S,3R,4S,6R)-4-(Dimethylamino)-3-hydroxy-6-methyltetrahydro-2H-pyran-2-yl)oxy)-3-((R)-1-hydroxy-3-(pyrrolidin-1-yl)propyl)-8-methoxy-4,6,8,10,12,12-hexamethyl-1-oxa-4-azacyclotridecane-11,13-dione] | < 4 µg/mL | < 4 µg/mL | < 4 µg/mL | > 32 µg/mL | > 32 µg/mL | < 4 µg/mL
CCCN1CC(C[C@H]2COC(=O)C(C)(C)C(=O)[C@H](C)[C@@H](O[C@@H]3O[C@H](C)C[C@H](N(C)C)[C@H]3O)[C@](C)(OC)C[C@@H](C)CN2C)C1 [Compound 79] | > 32 µg/mL | > 32 µg/mL | 4 to 32 µg/mL (≈ 6.54 to 52.3 µM) | > 32 µg/mL | > 32 µg/mL | > 32 µg/mL
CO[C@]1(C)C[C@@H](C)CN(C)[C@H](CCCN2CCC(F)CC2)COC(=O)C(C)(C)C(=O)[C@H](C)[C@H]1O[C@@H]1O[C@H](C)C[C@H](N(C)C)[C@H]1O [Compound 85, (3R,6R,8R,9R,10R)-9-(((2S,3R,4S,6R)-4-(dimethylamino)-3-hydroxy-6-methyltetrahydro-2H-pyran-2-yl)oxy)-3-(3-(4-fluoropiperidin-1-yl)propyl)-8-methoxy-4,6,8,10,12,12-hexamethyl-1-oxa-4-azacyclotridecane-11,13-dione] | < 4 µg/mL | < 4 µg/mL | < 4 µg/mL | > 32 µg/mL | > 32 µg/mL | < 4 µg/mL
CCN1C[C@H](C)C[C@@](C)(OC)[C@H](O[C@@H]2O[C@H](C)C[C@H](N(C)C)[C@H]2O)[C@@H](C)C(=O)C(C)(C)C(=O)OC[C@@H]1CCCN1CCCC1 [Compound 87, (3S,6R,8R,9R,10R)-9-(((2S,3R,4S,6R)-4-(dimethylamino)-3-hydroxy-6-methyltetrahydro-2H-pyran-2-yl)oxy)-4-ethyl-8-methoxy-6,8,10,12,12-pentamethyl-3-(3-(pyrrolidin-1-yl)propyl)-1-oxa-4-azacyclotridecane-11,13-dione] | < 4 µg/mL | < 4 µg/mL | < 4 µg/mL | > 32 µg/mL | > 32 µg/mL | < 4 µg/mL
CCN1C[C@H](C)C[C@@](C)(OC)[C@H](O[C@@H]2O[C@H](C)C[C@H](N(C)C)[C@H]2O)[C@@H](C)C(=O)C(C)(C)C(=O)OC[C@H]1CCCN1CCC[C@@H]1C [Compound 88, (3R,6R,8R,9R,10R)-9-(((2S,3R,4S,6R)-4-(dimethylamino)-3-hydroxy-6-methyltetrahydro-2H-pyran-2-yl)oxy)-4-ethyl-8-methoxy-6,8,10,12,12-pentamethyl-3-(3-((S)-2-methylpyrrolidin-1-yl)propyl)-1-oxa-4-azacyclotridecane-11,13-dione] | 4 to 32 µg/mL (≈ 6.25 to 50 µM) | < 4 µg/mL | < 4 µg/mL | > 32 µg/mL | > 32 µg/mL | < 4 µg/mL
CO[C@]1(C)C[C@@H](C)CN(C)[C@@H](CCCN(C)C2CC2)COC(=O)C(C)(C)C(=O)[C@H](C)[C@H]1O[C@@H]1O[C@H](C)C[C@H](N(C)C)[C@H]1O [Compound 90, (3S,6R,8R,9R,10R)-3-(3-(cyclopropyl(methyl)amino)propyl)-9-(((2S,3R,4S,6R)-4-(dimethylamino)-3-hydroxy-6-methyltetrahydro-2H-pyran-2-yl)oxy)-8-methoxy-4,6,8,10,12,12-hexamethyl-1-oxa-4-azacyclotridecane-11,13-dione] | 4 to 32 µg/mL (≈ 6.54 to 52.3 µM) | 4 to 32 µg/mL (≈ 6.54 to 52.3 µM) | < 4 µg/mL | > 32 µg/mL | > 32 µg/mL | < 4 µg/mL
CO[C@]1(C)C[C@@H](C)CN(C)[C@@H](CCCN2CCC(O)CC2)COC(=O)C(C)(C)C(=O)[C@H](C)[C@H]1O[C@@H]1O[C@H](C)C[C@H](N(C)C)[C@H]1O [Compound 92, (3S,6R,8R,9R,10R)-9-(((2S,3R,4S,6R)-4-(dimethylamino)-3-hydroxy-6-methyltetrahydro-2H-pyran-2-yl)oxy)-3-(3-(4-hydroxypiperidin-1-yl)propyl)-8-methoxy-4,6,8,10,12,12-hexamethyl-1-oxa-4-azacyclotridecane-11,13-dione] | > 32 µg/mL | 4 to 32 µg/mL (≈ 6.23 to 49.9 µM) | < 4 µg/mL | > 32 µg/mL | > 32 µg/mL | 4 to 32 µg/mL (≈ 6.23 to 49.9 µM)
CO[C@]1(C)C[C@@H](C)CN(C)[C@H](CCCN2CCCCC2)COC(=O)C(C)(C)C(=O)[C@H](C)[C@H]1O[C@@H]1O[C@H](C)C[C@H](N(C)C)[C@H]1O [Compound 93, (3R,6R,8R,9R,10R)-9-(((2S,3R,4S,6R)-4-(dimethylamino)-3-hydroxy-6-methyltetrahydro-2H-pyran-2-yl)oxy)-8-methoxy-4,6,8,10,12,12-hexamethyl-3-(3-(piperidin-1-yl)propyl)-1-oxa-4-azacyclotridecane-11,13-dione] | 4 to 32 µg/mL (≈ 6.39 to 51.1 µM) | < 4 µg/mL | < 4 µg/mL | > 32 µg/mL | > 32 µg/mL | < 4 µg/mL
